Experimental data taken from patent publication US20260224542A1, “PHARMACEUTICAL COMPOSITION CONTAINING ß-LACTAMASE INHIBITOR AND USE THEREOF” (priority 2023, published 2026).
In brackets after ≈: the same amount, converted by molar mass.

Legend:
[1] = tested on: Klebsiella pneumoniae AR0113; assay: Neutropenic mouse thigh infection, imipenem + Compound 1 dose ratios (Example 4); assay type: in vivo; conditions: Compound 1 total 96 mg/kg; 9 h after inoculation
Experimental: (§1) The overnight cultures are washed twice with phosphate buffer solution (PBS) and adjusted to the optimal concentration in PBS.
(§2) For intravenous (IV) administration, the solution of Compound 1 is prepared using a Captisol vehicle, which is 25 mM acetate buffer (prepared with sodium acetate trihydrate) containing 10% w/v Captisol. The pH is adjusted to 5.0 with 2N acetic acid solution. A desired volume of buffer is added to the weighed sample, the desired concentration of Compound 1 is prepared in the buffer, which is then ultrasonically heated in a water bath until a clear solution was obtained. The administrated volume of Compound 1 is 5 mL/kg.
(§3) For subcutaneous (SC) administration, an imipenem solution or imipenem-cilastatin solution is prepared in sterile PBS by using imipenem monohydrate or imipenem monohydrate and cilastatin sodium. The desired concentration of imipenem is prepared by adding PBS to the solid powder, then sonicating the mixture in a water bath until a clear solution is obtained, and the administrated volume is 10 mL/kg.
(§4) The mice were divided into 16 groups, with 5 mice in each group. […]
(§5) For the […] Group 1 (control group) above, animals were euthanized with an overdose of sodium pentobarbital 1 hour after inoculation. As described above, bilateral thighs were dissected and quantitatively cultured for use as final samples.

[2] = tested on: Pseudomonas aeruginosa ACC00680; assay: Neutropenic mouse thigh infection, imipenem + Compound 1 dose ratios (Example 1); assay type: in vivo; conditions: 9 h after inoculation
Experimental: as §1, §2, §3
The mice were divided into 15 groups, with 5 mice in each group. The test was carried out following the above steps, the concentration of the bacterial solution of Pseudomonas aeruginosa ACC00680 was 1.83×10^5 colony forming unit (CFU) per gram of thigh tissues, and the administration was conducted according to the scheme in the table below.
For Groups 2 to 15 above, animals were euthanized 9 hours after inoculation using an overdose of sodium pentobarbital, followed by confirmation of death by cervical dislocation.
as §5

[3] = Solubility of Compound 1 incubated for 24 h at 25° C. (Example 6); assay type: physicochemical
Experimental: The solubilization effect of sodium sulfobutylether-β-cyclodextrin (SBECD) and hydroxypropyl-β-cyclodextrin (HP-β-CD) on Compound 1 was investigated by taking the solubility in 50 mM pH 4.5 acetate buffer medium and water as a reference.
In the art, surfactants may also be used for solubilization. To further improve the solubility of Compound 1, a surfactant was added on the basis of SBECD to investigate the solubility.

[4] = tested on: Pseudomonas aeruginosa ACC00680; assay: Neutropenic mouse thigh infection, imipenem + cilastatin + Compound 1 dose ratios (Example 2); assay type: in vivo; conditions: Compound 1 total 96 mg/kg IV; 9 h after inoculation
Experimental: as §1, §2, §3, §4, §5

[5] = tested on: Acinetobacter baumannii AR0274; assay: Neutropenic mouse thigh infection, imipenem + Compound 1 dose ratios (Example 3); assay type: in vivo; conditions: Compound 1 total 96 mg/kg IV; 9 h after inoculation
Experimental: as §1, §2, §3, §4, §5

N=C1NC[C@@H](c2nnc([C@@H]3CC4(CC4)[C@@H]4CN3C(=O)N4OS(=O)(=O)O)o2)N1 [Compound 1]
Group geometric mean (CFU/g) [1]: 2.06 × 10^7 CFU/g | Group geometric mean (CFU/g) ([2]; Compound 1 total 50 mg/kg IV): 4.63 × 10^5 CFU/g | Group geometric mean (CFU/g) ([2]; Compound 1 total 75 mg/kg IV): 1.93 × 10^6 CFU/g | Group geometric mean (CFU/g) ([2]; Compound 1 total 100 mg/kg IV): 4.52 × 10^6 CFU/g | effect of surfactant added on the basis of SBECD on solubility ([3]; SBECD 10% plus surfactant): failed to significantly improve the solubility | solubility ([3]; water, background statement, conditions not stated): 600 µg/mL (≈ 1500 µM) | Group geometric mean (CFU/g) [4]: 3.21 × 10^7 CFU/g | Group geometric mean (CFU/g) [5]: 1.89 × 10^7 CFU/g
